Results reported in article PMC8745369, “Discovery of 2,4-thiazolidinedione-tethered coumarins as novel selective inhibitors for carbonic anhydrase IX and XII isoforms” (Journal of Enzyme Inhibition and Medicinal Chemistry, 2022).
Like-named read-outs stand apart in the source and are kept apart here.

What was measured:
hCA I = hCA I (Homo sapiens, UniProt P00915); test: Stopped flow CO2 hydrase assay, hCA I inhibition; type: biochemical
hCA II = hCA II (Homo sapiens, UniProt P00918); test: Stopped flow CO2 hydrase assay, hCA II inhibition; type: biochemical; settings: stopped flow technique; incubation time of 6 h; mean from 3 different assays; read-out: KI CA II
hCA IX = hCA IX (Homo sapiens, UniProt Q16790); test: Stopped flow CO2 hydrase assay, hCA IX inhibition; type: biochemical; settings: stopped flow technique; incubation time of 6 h; mean from 3 different assays; read-out: KI CA IX
hCA XII = hCA XII (Homo sapiens, UniProt O43570); test: Stopped flow CO2 hydrase assay, hCA XII inhibition; type: biochemical; settings: for Ki: stopped flow technique, incubation time of 6 h, mean from 3 different assays, read-out: KI CA XII
[1] = system: MCF-7 breast cancer cell line; test: MTT antiproliferative assay under hypoxic conditions; type: cell-based; settings: Homo sapiens, MCF7, hypoxic conditions (CoCl2), 48 h exposure, mean ± SD of three experiments
Protocol: 2. Anti-proliferative action toward human breast cell line
The examined human breast cancer cell line (MCF-7) has been obtained from American Type Culture Collection (ATCC). Cells line was maintained as monolayers in Dulbecco’s Modified Eagle’s Medium (DMEM) supplemented with 10% FBS, 2 mM L-glutamine, 100 U/ml penicillin and 100µg/ml streptomycin sulfate. Cobalt (II) chloride (CoCl2) was utilized as an inducer of HIF-1α to furnish a chemically-induced hypoxia. Cells were sub-cultured with trypsine /EDTA solution, counted with haemocytometer and plated onto 96-well plates (5000 cells/well) and left overnight to form a semi-confluent monolayer. Cell monolayers were treated in quadrates with […]
for an exposure time of 48 h. At the end of exposure, MTT solution in PBS (5 mg/ml) was then added to all well including no cell blank and left to incubate for 90 min. The formation of formazan crystals were visually confirmed using phase contract microscopy. DMSO (100 µl/well) was added to dissolve the formazan crystals with shaking for 10 min after which the absorbance was read at […]

[2] = system: MCF-7 breast cancer cells; test: Annexin V-FITC/propidium iodide apoptosis assay; type: cell-based, human; settings: treatment at IC50
Text: […]. This represents 57 folds total increase relative to the control in apoptotic cells.
IC50 values (concentration of sample
4. Annexin V-FITC Apoptosis Assay
Cells were then rinsed in binding

[3] = system: MCF-7 breast cancer cells; test: Cell cycle analysis by flow cytometry
[4] = stopped flow technique, incubation time of 6 h, mean from 3 different assays, read-out: KI CA I

hCA XII, sequence (O43570 25-354): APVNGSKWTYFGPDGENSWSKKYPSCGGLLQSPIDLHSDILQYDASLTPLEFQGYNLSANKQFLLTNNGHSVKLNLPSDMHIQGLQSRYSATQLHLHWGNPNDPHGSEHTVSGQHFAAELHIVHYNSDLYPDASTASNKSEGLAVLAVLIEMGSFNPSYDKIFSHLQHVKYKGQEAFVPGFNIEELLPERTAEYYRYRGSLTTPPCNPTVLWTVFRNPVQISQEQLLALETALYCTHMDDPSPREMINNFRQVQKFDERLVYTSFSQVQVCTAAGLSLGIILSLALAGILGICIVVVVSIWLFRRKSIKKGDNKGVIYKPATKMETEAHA
hCA I, sequence (P00915 whole entry): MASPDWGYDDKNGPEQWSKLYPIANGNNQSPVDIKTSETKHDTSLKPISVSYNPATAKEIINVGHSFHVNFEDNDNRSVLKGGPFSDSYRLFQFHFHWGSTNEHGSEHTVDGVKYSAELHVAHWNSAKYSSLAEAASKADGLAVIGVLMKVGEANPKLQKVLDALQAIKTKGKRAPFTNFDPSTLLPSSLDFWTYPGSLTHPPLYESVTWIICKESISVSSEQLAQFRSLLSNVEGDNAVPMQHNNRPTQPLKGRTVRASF

Ki (hCA I; [4]) [µM]	Ki (hCA II) [µM]	Ki (hCA IX) [µM]	Ki (hCA XII) [µM]	diminished inhibition for hCA XII relative to the unsubstituted analogue 5a (hCA XII; ratio of KI values) [fold]	melting point [°C]	IC50 [1] [µM]	Structure (SMILES)	Ki (hCA I) [µM]	Apoptosis Total ([2]; MCF-7, AV-FITC/PI positive stained cells) [%]	Apoptosis Early ([2]; MCF-7, AV-FITC/PI, lower right quadrant) [%]	total increase in apoptotic cells relative to the control ([2]; MCF-7, AV-FITC/PI) [folds]	Necrosis ([2]; MCF-7, AV-FITC/PI, upper left quadrant) [%]	Apoptosis Late ([2]; MCF-7, AV-FITC/PI, upper right quadrant) [%]	decrease in G2-M phase compared to the control [3] [folds]	increase of cell population at Sub-G1 compared to the control [3] [folds]
> 100	> 100	0.12	0.15				O=C(CN1C(=O)CSC1=O)c1cc2ccccc2oc1=O [5a, 3–(2-Oxo-2–(2-oxo-2H-chromen-3-yl)ethyl)thiazolidine-2,4-dione]								
> 100	> 100	0.24	0.31	2	239 to 241		O=C(CN1C(=O)CSC1=O)c1cc2cc(Br)ccc2oc1=O [5b, 3–(2-(6-Bromo-2-oxo-2H-chromen-3-yl)-2-oxoethyl)thiazolidine-2,4-dione]								
> 100	> 100	0.82	0.75		249 to 251	3.13 ± 0.18	O=C(CN1C(=O)SC(=Cc2ccccc2)C1=O)c1cc2ccccc2oc1=O [10a, 5-Benzylidene-3–(2-oxo-2–(2-oxo-2H-chromen-3-yl)ethyl)thiazolidine-2,4-dione]								
> 100	> 100	4.3	4		227 to 229		Cc1ccc(C=C2SC(=O)N(CC(=O)c3cc4ccccc4oc3=O)C2=O)cc1 [10b, 5–(4-Methylbenzylidene)-3–(2-oxo-2–(2-oxo-2H-chromen-3-yl)ethyl)thiazolidine-2,4-dione]								
> 100	> 100	5.8	4.5		257 to 259		COc1ccc(C=C2SC(=O)N(CC(=O)c3cc4ccccc4oc3=O)C2=O)cc1 [10c, 5–(4-Methoxybenzylidene)-3–(2-oxo-2–(2-oxo-2H-chromen-3-yl)ethyl)thiazolidine-2,4-dione]								
> 100	> 100	8.4	6.2		238 to 240		COc1ccc(OC)c(C=C2SC(=O)N(CC(=O)c3cc4ccccc4oc3=O)C2=O)c1 [10d, 5–(2,5-Dimethoxybenzylidene)-3–(2-oxo-2–(2-oxo-2H-chromen-3-yl)ethyl)thiazolidine-2,4-dione]								
> 100	> 100	12.3	8		263 to 265		O=C(CN1C(=O)SC(=Cc2ccc([N+](=O)[O-])cc2)C1=O)c1cc2ccccc2oc1=O [10e, 5–(4-Nitrobenzylidene)-3–(2-oxo-2–(2-oxo-2H-chromen-3-yl)ethyl)thiazolidine-2,4-dione]								
> 100	> 100	2.2	3.8		208 to 211		O=C(CN1C(=O)SC(=Cc2ccccc2Cl)C1=O)c1cc2ccccc2oc1=O [10f, 5–(2-Chlorobenzylidene)-3–(2-oxo-2–(2-oxo-2H-chromen-3-yl)ethyl)thiazolidine-2,4-dione]								
> 100	> 100	2.3	4.1		230 to 232		O=C(CN1C(=O)SC(=Cc2ccccc2Br)C1=O)c1cc2ccccc2oc1=O [10g, 5–(2-Bromobenzylidene)-3–(2-oxo-2–(2-oxo-2H-chromen-3-yl)ethyl)thiazolidine-2,4-dione]								
> 100	> 100	0.93	0.87		252 to 254	11.1 ± 0.65	O=C(CN1C(=O)SC(=Cc2ccccc2)C1=O)c1cc2cc(Br)ccc2oc1=O [10h, 5-Benzylidene-3–(2-(6-bromo-2-oxo-2H-chromen-3-yl)-2-oxoethyl)thiazolidine-2,4-dione]								
> 100	> 100	6.2	2.3		224 to 225		Cc1ccc(C=C2SC(=O)N(CC(=O)c3cc4cc(Br)ccc4oc3=O)C2=O)cc1 [10i, 3–(2-(6-Bromo-2-oxo-2H-chromen-3-yl)-2-oxoethyl)-5–(4-methylbenzylidene)thiazolidine-2,4-dione]								
> 100	> 100	8.9	4.9		245 to 247		COc1ccc(C=C2SC(=O)N(CC(=O)c3cc4cc(Br)ccc4oc3=O)C2=O)cc1 [10j, 3–(2-(6-Bromo-2-oxo-2H-chromen-3-yl)-2-oxoethyl)-5–(4-methoxybenzylidene)thiazolidine-2,4-dione]								
> 100	> 100	16.4	6.6		204 to 206		COc1ccc(OC)c(C=C2SC(=O)N(CC(=O)c3cc4cc(Br)ccc4oc3=O)C2=O)c1 [10k, 3–(2-(6-Bromo-2-oxo-2H-chromen-3-yl)-2-oxoethyl)-5–(2,5-dimethoxybenzylidene) thiazolidine-2,4-dione]								
> 100	> 100	18.2	10.4		229 to 231		O=C(CN1C(=O)SC(=Cc2ccc([N+](=O)[O-])cc2)C1=O)c1cc2cc(Br)ccc2oc1=O [10l, 3–(2-(6-Bromo-2-oxo-2H-chromen-3-yl)-2-oxoethyl)-5–(4-nitrobenzylidene)thiazolidine-2,4-dione]								
> 100	> 100	2.9	3.2		192 to 194		O=C(CN1C(=O)SC(=Cc2ccccc2Cl)C1=O)c1cc2cc(Br)ccc2oc1=O [10m, 3–(2-(6-Bromo-2-oxo-2H-chromen-3-yl)-2-oxoethyl)-5–(2-chlorobenzylidene)thiazolidine-2,4-dione]								
> 100	> 100	3.4	2.8		208 to 210		O=C(CN1C(=O)SC(=Cc2ccccc2Br)C1=O)c1cc2cc(Br)ccc2oc1=O [10n, 3–(2-(6-Bromo-2-oxo-2H-chromen-3-yl)-2-oxoethyl)-5–(2-bromobenzylidene)thiazolidine-2,4-dione]								
							O=C(CN1C(=O)SC(=Cc2cccs2)C1=O)c1cc2ccccc2oc1=O [11a, 3–(2-Oxo-2–(2-oxo-2H-chromen-3-yl)ethyl)-5-(thiophen-2-ylmethylene)thiazolidine-2,4-dione]	> 100	29.93	4.23	57	17.39	25.7	2.6	19.7
> 100	> 100	0.79	1.1		227 to 229	4.14 ± 0.24	Cc1ccc(C=C2SC(=O)N(CC(=O)c3cc4ccccc4oc3=O)C2=O)o1 [11b, 5-((5-Methylfuran-2-yl)methylene)-3–(2-oxo-2–(2-oxo-2H-chromen-3-yl)ethyl)thiazolidine-2,4-dione]								
> 100	> 100	0.59	0.44		255 to 257	9.56 ± 0.56	O=C(CN1C(=O)SC(=Cc2cccs2)C1=O)c1cc2cc(Br)ccc2oc1=O [11c, 3–(2-(6-Bromo-2-oxo-2H-chromen-3-yl)-2-oxoethyl)-5-(thiophen-2-ylmethylene)thiazolidine-2,4-dione]								
> 100	> 100	0.91	0.82		236 to 238	1.65 ± 0.1	Cc1ccc(C=C2SC(=O)N(CC(=O)c3cc4cc(Br)ccc4oc3=O)C2=O)o1 [11d, 3–(2-(6-Bromo-2-oxo-2H-chromen-3-yl)-2-oxoethyl)-5-((5-methylfuran-2-yl)methylene)thiazolidine-2,4-dione]								
